Measured values taken from patent publication US20150299188A1, “HETEROCYCLIC COMPOUND” (priority 2012, published 2015).

Each compound was assayed on FLAP (5-lipoxygenase activating protein) (assay: In vitro binding test: displacement of [3H]-7-chloro-3-(5-((3-fluoropyridin-2-yl)methoxy)-2-methylphenyl)-3,4-dihydroquinazolin-2(1H)-one from Sf9 microsome fractions). Conditions: Sf9 microsome fractions expressing FLAP; 100% = radioligand binding with 10 μM sodium 3-(3-(tert-butylsulfanyl)-1-(4-chlorobenzyl)-5-isopropyl-1H-indol-2-yl)-2,2-dimethylpropanoate, 0% = DMSO; test compound concentration not given.
Parameters: species or system human and mouse
Outline: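 Sf9 microsomes expressing human or mouse FLAP (2 μg/mL) preincubated with compound 10 min at room temperature, then 120 nM tritiated quinazolinone ligand added for 60 min; buffer 100 mM Tris-HCl pH 7.5 with NaCl, EDTA, DTT, glycerol, Tween20. Bound ligand filtered and counted by scintillation; 10 μM indole propanoate defines 100% inhibition, DMSO 0%.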

Row | inhibitory rate (%) | SMILES
1 | 100 | Cc1cnn(-c2cc3c(c(C4CC4)n2)CN(c2cc4c(cc2C)CCC(c2ncccc2F)O4)C(=O)N3)c1 (centres unmarked) [Example 133, 5-cyclopropyl-3-(2-(3-fluoropyridin-2-yl)-6-methyl-3,4-dihydro-2H-chromen-7-yl)-7-(4-methyl-1H-pyrazol-1-yl)-3,4-dihydropyrido[4,3-d]pyrimidin-2(1H)-one]
2 | 91 | O=C1Nc2cc(-c3nsc(=O)[nH]3)nc(C3CC3)c2CN1c1cc2c(cc1Cl)CCC(c1ncccc1F)O2 (centres unmarked) [Example 134, 3-(6-chloro-2-(3-fluoropyridin-2-yl)-3,4-dihydro-2H-chromen-7-yl)-5-cyclopropyl-7-(5-oxo-4,5-dihydro-1,2,4-thiadiazol-3-yl)-3,4-dihydropyrido[4,3-d]pyrimidin-2(1H)-one]
3 | 104 | Cc1cc2c(cc1N1Cc3c(cc(-n4cc(C(N)=O)cn4)nc3C3CC3)NC1=O)OC(c1ncccc1F)CC2 (centres unmarked) [Example 135, 1-(5-cyclopropyl-3-(2-(3-fluoropyridin-2-yl)-6-methyl-3,4-dihydro-2H-chromen-7-yl)-2-oxo-1,2,3,4-tetrahydropyrido[4,3-d]pyrimidin-7-yl)-1H-pyrazole-4-carboxamide]
4 | 111 | O=C1Nc2cc(-c3ncon3)nc(C3CC3)c2CN1c1cc2c(cc1Cl)CCC(c1ncccc1F)O2 (centres unmarked) [Example 136, 3-(6-chloro-2-(3-fluoropyridin-2-yl)-3,4-dihydro-2H-chromen-7-yl)-5-cyclopropyl-7-(1,2,4-oxadiazol-3-yl)-3,4-dihydropyrido[4,3-d]pyrimidin-2(1H)-one]
5 | 104 | O=C(c1cc2c(c(C3CC3)n1)CN(c1cc3c(cc1Cl)CCC(c1ncccc1F)O3)C(=O)N2)N1CC2(COC2)C1 (centres unmarked) [Example 137, 3-(6-chloro-2-(3-fluoropyridin-2-yl)-3,4-dihydro-2H-chromen-7-yl)-5-cyclopropyl-7-(2-oxa-6-azaspiro[3.3]hept-6-ylcarbonyl)-3,4-dihydropyrido[4,3-d]pyrimidin-2(1H)-one]
6 | 109 | Cc1cc2c(cc1N1Cc3c(cc(N4CCOC4=O)nc3C3CC3)NC1=O)OC(c1ncccc1F)CC2 (centres unmarked) [Example 138, 5-cyclopropyl-3-(2-(3-fluoropyridin-2-yl)-6-methyl-3,4-dihydro-2H-chromen-7-yl)-7-(2-oxo-1,3-oxazolidin-3-yl)-3,4-dihydropyrido[4,3-d]pyrimidin-2(1H)-one]
7 | 98 | O=C(c1cc2c(c(C3CC3)n1)CN(c1cc3c(cc1Cl)CCC(c1ncccc1F)O3)C(=O)N2)N1CC(F)(F)C1 (centres unmarked) [Example 139, 3-(6-chloro-2-(3-fluoropyridin-2-yl)-3,4-dihydro-2H-chromen-7-yl)-5-cyclopropyl-7-((3,3-difluoroazetidin-1-yl)carbonyl)-3,4-dihydropyrido[4,3-d]pyrimidin-2(1H)-one]
8 | 99 | Cc1cc2c(cc1N1Cc3c(cc(-n4cncn4)nc3C3CC3)NC1=O)OC(c1ncccc1F)CC2 (centres unmarked) [Example 140, 5-cyclopropyl-3-(2-(3-fluoropyridin-2-yl)-6-methyl-3,4-dihydro-2H-chromen-7-yl)-7-(1H-1,2,4-triazol-1-yl)-3,4-dihydropyrido[4,3-d]pyrimidin-2(1H)-one]
9 | 102 | Cc1cc2c(cc1N1Cc3c(cc(Oc4ccnn4C)nc3C3CC3)NC1=O)OC(c1ncccc1F)CC2 (centres unmarked) [Example 141, 5-cyclopropyl-3-(2-(3-fluoropyridin-2-yl)-6-methyl-3,4-dihydro-2H-chromen-7-yl)-7-((1-methyl-1H-pyrazol-5-yl)oxy)-3,4-dihydropyrido[4,3-d]pyrimidin-2(1H)-one]
10 | 102 | Cc1cc2c(cc1N1Cc3c(Cl)cnc(C4CC4)c3NC1=O)OC(c1ncccc1F)CC2 (centres unmarked) [Example 142, 5-chloro-8-cyclopropyl-3-(2-(3-fluoropyridin-2-yl)-6-methyl-3,4-dihydro-2H-chromen-7-yl)-3,4-dihydropyrido[3,4-d]pyrimidin-2(1H)-one]
11 | 89 | O=C1Nc2c(C3CC3)ncc(Cl)c2CN1c1cc2c(cc1Cl)CCC(c1ncccc1F)O2 (centres unmarked) [Example 143, 5-chloro-3-(6-chloro-2-(3-fluoropyridin-2-yl)-3,4-dihydro-2H-chromen-7-yl)-8-cyclopropyl-3,4-dihydropyrido[3,4-d]pyrimidin-2(1H)-one]
12 | 92 | Cc1cc2c(cc1N1Cc3c(cc(N4CCCC4=O)nc3C3CC3)NC1=O)OC(c1ncccc1F)CC2 (centres unmarked) [Example 144, 5-cyclopropyl-3-(2-(3-fluoropyridin-2-yl)-6-methyl-3,4-dihydro-2H-chromen-7-yl)-7-(2-oxopyrrolidin-1-yl)-3,4-dihydropyrido[4,3-d]pyrimidin-2(1H)-one]
13 | 104 | O=C(c1cc2c(c(C3CC3)n1)CN(c1cc3c(cc1Cl)CCC(c1ncccc1F)O3)C(=O)N2)N1CC(F)C1 (centres unmarked) [Example 145, 3-(6-chloro-2-(3-fluoropyridin-2-yl)-3,4-dihydro-2H-chromen-7-yl)-5-cyclopropyl-7-((3-fluoroazetidin-1-yl)carbonyl)-3,4-dihydropyrido[4,3-d]pyrimidin-2(1H)-one]
14 | 97 | COC1CN(C(=O)c2cc3c(c(C4CC4)n2)CN(c2cc4c(cc2Cl)CCC(c2ncccc2F)O4)C(=O)N3)C1 (centres unmarked) [Example 146, 3-(6-chloro-2-(3-fluoropyridin-2-yl)-3,4-dihydro-2H-chromen-7-yl)-5-cyclopropyl-7-((3-methoxyazetidin-1-yl)carbonyl)-3,4-dihydropyrido[4,3-d]pyrimidin-2(1H)-one]
15 | 104 | O=C(NCC(F)F)c1cc2c(c(C3CC3)n1)CN(c1cc3c(cc1Cl)CCC(c1ncccc1F)O3)C(=O)N2 (centres unmarked) [Example 147, 3-(6-chloro-2-(3-fluoropyridin-2-yl)-3,4-dihydro-2H-chromen-7-yl)-5-cyclopropyl-N-(2,2-difluoroethyl)-2-oxo-1,2,3,4-tetrahydropyrido[4,3-d]pyrimidine-7-carboxamide]
16 | 97 | Cc1cc2c(cc1N1Cc3c(Cl)cnc(-c4cnn(C)c4)c3NC1=O)OC(c1ncccc1F)CC2 (centres unmarked) [Example 148, 5-chloro-3-(2-(3-fluoropyridin-2-yl)-6-methyl-3,4-dihydro-2H-chromen-7-yl)-8-(1-methyl-1H-pyrazol-4-yl)-3,4-dihydropyrido[3,4-d]pyrimidin-2(1H)-one]
17 | 107 | O=C(NCC(F)(F)F)c1cc2c(c(C3CC3)n1)CN(c1cc3c(cc1Cl)CCC(c1ncccc1F)O3)C(=O)N2 (centres unmarked) [Example 149, 3-(6-chloro-2-(3-fluoropyridin-2-yl)-3,4-dihydro-2H-chromen-7-yl)-5-cyclopropyl-2-oxo-N-(2,2,2-trifluoroethyl)-1,2,3,4-tetrahydropyrido[4,3-d]pyrimidine-7-carboxamide]
18 | 98 | CN(C)C(=O)c1cc2c(c(C3CC3)n1)CN(c1cc3c(cc1Cl)CCC(c1ncccc1F)O3)C(=O)N2 (centres unmarked) [Example 150, 3-(6-chloro-2-(3-fluoropyridin-2-yl)-3,4-dihydro-2H-chromen-7-yl)-5-cyclopropyl-N,N-dimethyl-2-oxo-1,2,3,4-tetrahydropyrido[4,3-d]pyrimidine-7-carboxamide]
19 | 90 | Cc1cc2c(cc1N1Cc3c(cc(-c4c(C)noc4C)nc3C3CC3)NC1=O)OC(c1ncccc1F)CC2 (centres unmarked) [Example 151, 5-cyclopropyl-7-(3,5-dimethyl-1,2-oxazol-4-yl)-3-(2-(3-fluoropyridin-2-yl)-6-methyl-3,4-dihydro-2H-chromen-7-yl)-3,4-dihydropyrido[4,3-d]pyrimidin-2(1H)-one]
20 | 103 | O=C1Nc2cncc(Cl)c2CN1c1cc2c(cc1Cl)CCC(c1ncccc1F)O2 (centres unmarked) [Example 152, 5-chloro-3-(6-chloro-2-(3-fluoropyridin-2-yl)-3,4-dihydro-2H-chromen-7-yl)-3,4-dihydropyrido[3,4-d]pyrimidin-2(1H)-one]
21 | 104 | O=C1Nc2c(N3CCCC3)ncc(Cl)c2CN1c1cc2c(cc1Cl)CCC(c1ncccc1F)O2 (centres unmarked) [Example 153, 5-chloro-3-(6-chloro-2-(3-fluoropyridin-2-yl)-3,4-dihydro-2H-chromen-7-yl)-8-(pyrrolidin-1-yl)-3,4-dihydropyrido[3,4-d]pyrimidin-2(1H)-one]
22 | 100 | Cc1cc2c(cc1N1Cc3c(cc(-n4cc(C(F)(F)F)cn4)nc3C3CC3)NC1=O)OC(c1ncccc1F)CC2 (centres unmarked) [Example 154, 5-cyclopropyl-3-(2-(3-fluoropyridin-2-yl)-6-methyl-3,4-dihydro-2H-chromen-7-yl)-7-(4-(trifluoromethyl)-1H-pyrazol-1-yl)-3,4-dihydropyrido[4,3-d]pyrimidin-2(1H)-one]
23 | 101 | O=C1Nc2c(-c3ccoc3)ncc(Cl)c2CN1c1cc2c(cc1Cl)CCC(c1ncccc1F)O2 (centres unmarked) [Example 155, 5-chloro-3-(6-chloro-2-(3-fluoropyridin-2-yl)-3,4-dihydro-2H-chromen-7-yl)-8-(3-furyl)-3,4-dihydropyrido[3,4-d]pyrimidin-2(1H)-one]
24 | 95 | COc1ncc(Cl)c2c1NC(=O)N(c1cc3c(cc1C)CCC(c1ncccc1F)O3)C2 (centres unmarked) [Example 156, 5-chloro-3-(2-(3-fluoropyridin-2-yl)-6-methyl-3,4-dihydro-2H-chromen-7-yl)-8-methoxy-3,4-dihydropyrido[3,4-d]pyrimidin-2(1H)-one]
25 | 104 | N#Cc1ncc(Cl)c2c1NC(=O)N(c1cc3c(cc1Cl)CCC(c1ncccc1F)O3)C2 (centres unmarked) [Example 157, 5-chloro-3-(6-chloro-2-(3-fluoropyridin-2-yl)-3,4-dihydro-2H-chromen-7-yl)-2-oxo-1,2,3,4-tetrahydropyrido[3,4-d]pyrimidine-8-carbonitrile]
26 | 99 | Cc1cc2c(cc1N1Cc3c(Cl)cnc(N4CCCC4)c3NC1=O)OC(c1ncccc1F)CC2 (centres unmarked) [Example 158, 5-chloro-3-(2-(3-fluoropyridin-2-yl)-6-methyl-3,4-dihydro-2H-chromen-7-yl)-8-(pyrrolidin-1-yl)-3,4-dihydropyrido[3,4-d]pyrimidin-2(1H)-one]
